Where “and” joins values, the source holds several entries; their conditions need not be identical. Equal entries are not always repeated. Inconclusive results and toxic doses are left out.
System: L1210 leukemia ip in BDF1 mice, survival T/C
Assay: NCI In Vivo Anticancer Drug Screen. Data for tumor model L1210 Leukemia (intraperitoneal) in B6D2F1 (BDF1) mice
Details: endpoint: mean survival time, higher = longer survival
Procedure, shortened: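 Each compound was tested against a transplantable tumor grown in mice. The endpoint was survival, with treated animals benchmarked against vehicle controls as a simple ratio.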

[1] = dose: 100.0 mg/kg/injection, schedule: Q04DX003 (ip), vehicle: Klucel (hydroxypropylcellulose) (HPC)
[2] = dose: 200.0 mg/kg/injection, schedule: Q04DX003 (ip), vehicle: Klucel (hydroxypropylcellulose) (HPC)
[3] = dose: 400.0 mg/kg/injection, schedule: Q04DX003 (ip), vehicle: Klucel (hydroxypropylcellulose) (HPC)
[4] = dose: 100.0 mg/kg/injection, schedule: Q01DX001 (ip), vehicle: saline

Clc1ncnc2nc[nH]c12
T/C (dose: 7.5 mg/kg/injection, schedule: Q01DX010 (ip), vehicle: saline): 93 % of control and 96 % of control
T/C (dose: 9.37 mg/kg/injection, schedule: Q03HX008 (ip), vehicle: other): 103 % of control
T/C (dose: 9.37 mg/kg/injection, schedule: Q03HX016 (ip), vehicle: other): 102 % of control
T/C (dose: 9.37 mg/kg/injection, schedule: Q03HX024 (ip), vehicle: other): 112 % of control
T/C (dose: 12.5 mg/kg/injection, schedule: Q03HX016 (ip), vehicle: other): 105 % of control
T/C (dose: 12.5 mg/kg/injection, schedule: Q03HX024 (ip), vehicle: other): 104 % of control
T/C (dose: 15.0 mg/kg/injection, schedule: Q01DX010 (ip), vehicle: saline): 93 % of control and 105 % of control
T/C (dose: 18.75 mg/kg/injection, schedule: Q03HX008 (ip), vehicle: other): 111 % of control
T/C (dose: 18.75 mg/kg/injection, schedule: Q03HX016 (ip), vehicle: other): 113 % of control
T/C (dose: 18.75 mg/kg/injection, schedule: Q03HX024 (ip), vehicle: other): 110 % of control
T/C (dose: 25.0 mg/kg/injection, schedule: Q01DX006 (iv), vehicle: other): 108 % of control
T/C (dose: 25.0 mg/kg/injection, schedule: Q03HX016 (ip), vehicle: other): 112 % of control
T/C (dose: 25.0 mg/kg/injection, schedule: Q03HX024 (ip), vehicle: other): 114 % of control
T/C (dose: 30.0 mg/kg/injection, schedule: Q01DX010 (ip), vehicle: saline): 104 % of control and 107 % of control
T/C (dose: 37.5 mg/kg/injection, schedule: Q03HX024 (ip), vehicle: other): 160 % of control
T/C (dose: 50.0 mg/kg/injection, schedule: Q01DX001 (iv), vehicle: other): 98 % of control
T/C (dose: 50.0 mg/kg/injection, schedule: Q01DX005 (ip), vehicle: other): 103 % of control
T/C (dose: 50.0 mg/kg/injection, schedule: Q01DX006 (iv), vehicle: other): 108 % of control
T/C (dose: 50.0 mg/kg/injection, schedule: Q01DX009 (ip), vehicle: other): 106 % of control and 109 % of control
T/C (dose: 50.0 mg/kg/injection, schedule: Q01DX009 (oral), vehicle: other): 112 % of control
T/C (dose: 50.0 mg/kg/injection, schedule: Q01DX009 (sc), vehicle: other): 114 % of control
T/C (dose: 50.0 mg/kg/injection, schedule: Q01DX Z (ip), vehicle: carboxymethylcellulose (CMC)): 110 % of control
T/C (dose: 60.0 mg/kg/injection, schedule: Q01DX010 (ip), vehicle: saline): 101 % of control and 103 % of control
T/C (dose: 75.0 mg/kg/injection, schedule: Q01DX001 (sc), vehicle: other): 106 % of control
T/C (dose: 75.0 mg/kg/injection, schedule: Q03HX016 (ip), vehicle: other): 163 % of control
T/C (dose: 75.0 mg/kg/injection, schedule: Q03HX024 (ip), vehicle: other): 189 % of control
T/C (dose: 75.0 mg/kg/injection, schedule: Q04DX003 (ip), vehicle: other): 106 % of control
T/C (dose: 75.0 mg/kg/injection, schedule: Q08DX002 (ip), vehicle: other): 103 % of control
T/C (dose: 100.0 mg/kg/injection, schedule: Q01DX001 (iv), vehicle: other): 101 % of control
T/C (dose: 100.0 mg/kg/injection, schedule: Q01DX001 (oral), vehicle: other): 103 % of control
T/C (dose: 100.0 mg/kg/injection, schedule: Q01DX005 (ip), vehicle: other): 118 % of control
T/C (dose: 100.0 mg/kg/injection, schedule: Q01DX006 (iv), vehicle: other): 113 % of control
T/C (dose: 100.0 mg/kg/injection, schedule: Q01DX009 (ip), vehicle: other): 121 % of control
T/C (dose: 100.0 mg/kg/injection, schedule: Q01DX Z (ip), vehicle: carboxymethylcellulose (CMC)): 156 % of control
T/C (dose: 100.0 mg/kg/injection, schedule: Q03HX016 (ip), vehicle: other): 163 % of control
T/C (dose: 100.0 mg/kg/injection, schedule: Q03HX024 (ip), vehicle: other): 150 % of control
T/C (dose: 100.0 mg/kg/injection, schedule: Q04DX003 (ip), vehicle: other): 115 % of control
T/C (dose: 100.0 mg/kg/injection, schedule: Q08DX002 (ip), vehicle: other): 101 % of control
T/C (dose: 146.0 mg/kg/injection, schedule: Q01DX015 (ip), vehicle: gum acacia): 152 % of control
T/C (dose: 150.0 mg/kg/injection, schedule: Q01DX001 (sc), vehicle: other): 113 % of control
T/C (dose: 150.0 mg/kg/injection, schedule: Q04DX003 (ip), vehicle: other): 114 % of control
T/C (dose: 150.0 mg/kg/injection, schedule: Q08DX002 (ip), vehicle: other): 104 % of control
T/C (dose: 200.0 mg/kg/injection, schedule: Q01DX001 (iv), vehicle: other): 106 % of control
T/C (dose: 200.0 mg/kg/injection, schedule: Q01DX001 (oral), vehicle: other): 110 % of control
T/C (dose: 200.0 mg/kg/injection, schedule: Q01DX009 (oral), vehicle: other): 152 % of control and 160 % of control
T/C (dose: 200.0 mg/kg/injection, schedule: Q04DX003 (ip), vehicle: other): 109 % of control
T/C (dose: 200.0 mg/kg/injection, schedule: Q08DX002 (ip), vehicle: other): 105 % of control
T/C (dose: 218.0 mg/kg/injection, schedule: Q01DX015 (ip), vehicle: gum acacia): 150 % of control
T/C (dose: 300.0 mg/kg/injection, schedule: Q01DX001 (sc), vehicle: other): 113 % of control
T/C (dose: 300.0 mg/kg/injection, schedule: Q04DX003 (ip), vehicle: other): 113 % of control
T/C (dose: 300.0 mg/kg/injection, schedule: Q08DX002 (ip), vehicle: other): 105 % of control
T/C (dose: 327.0 mg/kg/injection, schedule: Q01DX015 (ip), vehicle: gum acacia): 152 % of control
T/C (dose: 360.0 mg/kg/injection, schedule: Q01DX015 (ip), vehicle: gum acacia): 110 % of control
T/C (dose: 400.0 mg/kg/injection, schedule: Q01DX009 (oral), vehicle: other): 158 % of control
T/C (dose: 400.0 mg/kg/injection, schedule: Q01DX015 (ip), vehicle: other): 105 % of control
T/C (dose: 400.0 mg/kg/injection, schedule: Q04DX003 (ip), vehicle: other): 115 % of control
T/C (dose: 400.0 mg/kg/injection, schedule: Q08DX002 (ip), vehicle: other): 103 % of control
T/C (dose: 490.0 mg/kg/injection, schedule: Q01DX015 (ip), vehicle: gum acacia): 90 % of control
T/C (dose: 800.0 mg/kg/injection, schedule: Q04DX003 (ip), vehicle: other): 114 % of control

Cc1c(N2CCCCC2)[nH]c2ccccc12
T/C (dose: 100.0 mg/kg/injection, schedule: Q01DX009 (ip), vehicle: Klucel (hydroxypropylcellulose) (HPC)): 87 % of control
T/C [1]: 96 % of control
T/C [2]: 95 % of control
T/C [3]: 88 % of control

CN(C)C(=S)N(C(=S)N(C)C)c1ccc(Cl)cc1
T/C [4]: 101 % of control
T/C (dose: 200.0 mg/kg/injection, schedule: Q01DX001 (ip), vehicle: saline): 92 % of control
T/C (dose: 400.0 mg/kg/injection, schedule: Q01DX001 (ip), vehicle: saline): 97 % of control

CC(=O)N(N=O)c1c(C)cccc1C
T/C (dose: 50.0 mg/kg/injection, schedule: Q01DX001 (ip), vehicle: saline): 102 % of control
T/C [4]: 105 % of control

CCCCCCCC(=O)N(CCC(=O)O)C(=O)O
T/C (dose: 100.0 mg/kg/injection, schedule: Q01DX001 (ip), vehicle: saline with Tween-80): 88 % of control
T/C (dose: 200.0 mg/kg/injection, schedule: Q01DX001 (ip), vehicle: saline with Tween-80): 96 % of control
T/C (dose: 400.0 mg/kg/injection, schedule: Q01DX001 (ip), vehicle: saline with Tween-80): 107 % of control

O=C(Oc1ccc(S(=O)(=O)F)cc1Cl)c1ccccc1Cl
T/C (dose: 100.0 mg/kg/injection, schedule: Q04DX003 (ip), vehicle: carboxymethylcellulose (CMC)): 98 % of control
T/C (dose: 200.0 mg/kg/injection, schedule: Q04DX003 (ip), vehicle: carboxymethylcellulose (CMC)): 95 % of control
T/C (dose: 400.0 mg/kg/injection, schedule: Q04DX003 (ip), vehicle: carboxymethylcellulose (CMC)): 104 % of control

O=S=Nc1ccc([N+](=O)[O-])cc1Cl
T/C (dose: 100.0 mg/kg/injection, schedule: Q04DX002 (ip), vehicle: Klucel (hydroxypropylcellulose) (HPC)): 103 % of control
T/C (dose: 200.0 mg/kg/injection, schedule: Q04DX002 (ip), vehicle: Klucel (hydroxypropylcellulose) (HPC)): 106 % of control
T/C (dose: 400.0 mg/kg/injection, schedule: Q04DX002 (ip), vehicle: Klucel (hydroxypropylcellulose) (HPC)): 100 % of control

O=C(O)/C=C\C(=O)Nc1ccc(O)cc1
T/C [1]: 102 % of control
T/C (dose: 200.0 mg/kg/injection, schedule: Q01DX Z (ip), vehicle: saline): 120 % of control
T/C [2]: 110 % of control
T/C [3]: 110 % of control
T/C (dose: 675.0 mg/kg/injection, schedule: Q01DX Z (ip), vehicle: saline): 100 % of control

— PubChem BioAssay AID248 (DTP/NCI, 2004)
